Literature values as cited in publication PMC2931793 (Journal of neuroscience methods, 2008).

Test system: IDE
Conditions: ref Song et al., 2001

Substance | Vmax of IDE-mediated cleavage
Abz-GGFLRKGVQ-EDDnp | ~ 0.2 μmol min^−1 mg^−1
β-endorphin | 2.6 µmol/min/mg
